# Measurements from publication PMC10361207, “Cannabinoid and Opioid Receptor Affinity and Modulation of Cancer-Related Signaling Pathways of Machaeriols and Machaeridiols from Machaerium Pers” (Molecules, 2023).
# Key:
# κ opioid receptor = target: T1, κ opioid receptor (Homo sapiens, UniProt P41145); assay type: binding; conditions: 10 μM; [3H]-U-69,593
# T1 construct: host or cells: HEK293, stably transfected; membranes
# Procedure: (§1) HEK293 cells stably transfected with δ, κ and μ opioid subtypes were a generous gift from Roth Laboratories (University of North Carolina at Chapel Hill, N.C., USA). CB and opioid cells were maintained as previously described.
# Membranes were purified by first washing the cells with cold PBS and scraping the cells into cold 50 mM Tris-HCl, pH 7.4 buffer, which was centrifuged at 5200× g for 10 min at 4 °C; next, the supernatant was discarded, and the pellet was washed with more Tris-HCl buffer, homogenized via a Sonic Dismembrator (Fisher Scientific, Pittsburgh, PA, USA) and then centrifuged at 24,000× g for 40 min at 4 °C. […] The total membrane protein concentration was measured using a Pierce BCA Protein Assay Kit (Thermo Scientific, Rockford, IL, USA) as per the manufacturer’s protocol.
# Cannabinoid and opioid competitive radioligand binding assays were performed as previously described. […] Percent displacements were evaluated for all the cannabinoid and opioid subtypes with a triplicate of a fixed concentration (10 µg/mL for extracts and fractions and 10 μM for purified compounds). […] The percent displacement was calculated to represent the ability of the samples to displace the radioligand binding for a given cannabinoid or opioid receptor subtype.
# The percent displacement was calculated as follows: 100−binding of compound−nonspecific binding/specific binding×100 […]
# [1] = test system: SK-MEL, KB, BT-549, SK-OV-3, HeLa, LLC-PK1 and Vero cells; assay: Cytotoxicity, summary over the cell line panel; assay type: cell-based; conditions: highest tested concentration of 50 µg/mL; most of the cells
# Procedure: (§2) In vitro cytotoxic activity was determined against five human cancer cell lines—malignant melanoma (SK-MEL), epidermal carcinoma oral (KB), ductal carcinoma breast (BT-549), ovary carcinoma (SKOV-3) and cervical (HeLa) cancer cells—and two non-cancerous kidney cell lines (LLC-PK1 and Vero). All cell lines were obtained from the American Type Culture Collection (ATCC, Rockville, MD, USA). Each assay was performed in 96-well tissue culture-treated microplates. The cells were seeded at a density of 25,000 cells/well and incubated for 24 h. Samples at different concentrations were added, and the cells were incubated again for 48 h. At the end of the incubation, the cell viability was determined using Neutral Red dye according to a modification of the procedure used by Borenfreund et al.. IC50 values were determined from dose–response curves of the percent growth inhibition against test concentrations. Doxorubicin was used as a positive control, while DMSO was used as the negative (vehicle) control.
# μ opioid receptor = target: T2, μ opioid receptor (Homo sapiens, UniProt P35372); assay: biochemical; assay type: binding
# T2 construct: host or cells: HEK293, stably transfected; membranes
# T2 sequence (P35372 whole entry): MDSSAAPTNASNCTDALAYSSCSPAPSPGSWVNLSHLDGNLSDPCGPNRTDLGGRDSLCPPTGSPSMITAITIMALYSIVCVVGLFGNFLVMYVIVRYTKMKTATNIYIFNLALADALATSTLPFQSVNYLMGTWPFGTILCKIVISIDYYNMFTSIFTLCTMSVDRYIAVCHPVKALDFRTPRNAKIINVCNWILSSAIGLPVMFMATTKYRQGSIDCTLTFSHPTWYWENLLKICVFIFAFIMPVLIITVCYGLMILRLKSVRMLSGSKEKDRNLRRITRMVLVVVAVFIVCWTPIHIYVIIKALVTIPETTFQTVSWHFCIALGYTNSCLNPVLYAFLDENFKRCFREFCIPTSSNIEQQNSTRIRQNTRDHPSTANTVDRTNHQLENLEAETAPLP
# Procedure: as §1
# Membranes were purified by first washing the cells with cold PBS and scraping the cells into cold 50 mM Tris-HCl, pH 7.4 buffer, which was centrifuged at 5200× g for 10 min at 4 °C; next, the supernatant was discarded, and the pellet was washed with more Tris-HCl buffer, homogenized via a Sonic Dismembrator (Fisher Scientific, Pittsburgh, PA, USA) and then centrifuged at 24,000× g for 40 min at 4 °C. Finally, the pellet was re-suspended in cold 50 mM Tris-HCl buffer, aliquoted into 2 mL vials and stored at −80 °C. The total membrane protein concentration was measured using a Pierce BCA Protein Assay Kit (Thermo Scientific, Rockford, IL, USA) as per the manufacturer’s protocol.
# Cannabinoid and opioid competitive radioligand binding assays were performed as previously described. Saturation experiments were performed for all the receptors to determine the receptor concentration and radioligand dissociation constant (Kd) for the membrane. Percent displacements were evaluated for all the cannabinoid and opioid subtypes with a triplicate of a fixed concentration (10 µg/mL for extracts and fractions and 10 μM for purified compounds). […] Control/test compounds were dissolved in DMSO at 10 μg/mL for extracts and fractions and 10 μM for purified compounds. […] The percent displacement was calculated to represent the ability of the samples to displace the radioligand binding for a given cannabinoid or opioid receptor subtype.
# The percent displacement was calculated as follows: 100−binding of compound−nonspecific binding/specific binding×100
# The competitive binding assays were performed using 12 serial dilutions of each compound ranging from 0.002 to 300 μM (control compounds were serially diluted from 10 μM to 0.06 nM). The cannabinoid assays were incubated for 90 min at 37 °C with gentle agitation. The opioid assays were incubated for 60 min at room temperature. Bound radioligands were collected on GF/C (cannabinoid) or GF/B plates (opioid) and washed 10 times with ice-cold 50 mM Tris-HCl (pH 7.4)/0.1% BSA (cannabinoid) or ice-cold 50 mM Tris-HCl (pH 7.4) (opioid). Radiodetection was measured with 50 µL (cannabinoid) or 25 µL (opioid) of MicroScint^TM-20 on a TopCount NXT HTS Microplate Scintillation Counter (PerkinElmer, Waltham, MA, USA). The IC50 and Ki values were calculated via a non-linear curve fit model using GraphPad Prism 5.0 software (GraphPad Software, Inc., San Diego, CA, USA). Each compound was tested in triplicate unless stated otherwise.
# [2] = Cytotoxicity, Neutral Red, HeLa; assay type: cell-based; conditions: human, HeLa cervical cancer cells, Na = not active up to 50 µg/mL
# Procedure: as §2
# [3] = Cytotoxicity, Neutral Red, LLC-PK1; assay type: cell-based; conditions: pig, LLC-PK1 kidney epithelial cells, Na = not active up to 50 µg/mL
# Procedure: as §2
# [4] = Cytotoxicity, Neutral Red, Vero; assay type: cell-based; conditions: monkey, Vero kidney fibroblasts, Na = not active up to 50 µg/mL
# Procedure: as §2
# [5] = Cytotoxicity, summary over the cell line panel; assay type: cell-based; conditions: human, HeLa, SK-MEL, KB and BT-549 cells; read-out: Cytotoxicity IC50 values, span over cell lines
# Procedure: as §2
# Stat3 = assay: Luciferase reporter assay, Stat3, T98G; assay type: cell-based; conditions: Homo sapiens; T98G cells; inducer IL6
# Procedure: (§3) Hela cells (or T98G cells) from ATCC were plated in white opaque 384-well plates at a density of 4300 cells/well in 30 µL of growth medium (DMEM with 10% FBS and 1% Pen/Strep). The next day, the medium was aspirated and replaced with DMEM containing 1% FBS. The cells were transfected with respective plasmids using X-tremeGENE HP DNA transfection reagent (Roche). After 24 h of transfection, the test agents were added to the transfected cells, followed 30 min later by an inducing agent: interleukin 6 (IL-6) for Stat3, TGF-β for Smad, m-wnt3a for Wnt and PMA for AP-1, NF-κB, E2F, Myc, ETS, Notch and Hedgehog. No inducer was added for FoXO and pTK. After 4 h or 6 h of induction, the cells were lysed via the addition of the One-Glo luciferase assay system (Promega; Madison, WI). The light output was detected in a GloMax®-Multi+ Detection System with Instinct® Software (Promega E 8051). This luciferase assay determines if the test agent is able to inhibit the activation of cancer-related signaling pathways. In the case of FoxO, the enhanced luciferase activity via the test agent was assessed.
# Smad2/3 = assay: Luciferase reporter assay, Smad2/3, T98G; assay type: cell-based; conditions: Homo sapiens; T98G cells; inducer TGF-beta
# Procedure: as §3
# NF-κB = assay: Luciferase reporter assay, NF-κB, T98G; assay type: cell-based; conditions: Homo sapiens; T98G cells; inducer PMA
# Procedure: as §3
# E2F = assay: Luciferase reporter assay, E2F, T98G; assay type: cell-based; conditions: Homo sapiens; T98G cells; inducer PMA
# Procedure: as §3
# Myc = assay: Luciferase reporter assay, Myc, T98G; assay type: cell-based; conditions: Homo sapiens; T98G cells; inducer PMA
# Procedure: as §3
# ETS = assay: Luciferase reporter assay, ETS, T98G; assay type: cell-based; conditions: Homo sapiens; T98G cells; inducer PMA
# Procedure: as §3
# Notch = assay: Luciferase reporter assay, Notch, T98G; assay type: cell-based; conditions: Homo sapiens; T98G cells; inducer PMA
# Procedure: as §3
# Wnt = assay: Luciferase reporter assay, Wnt, T98G; assay type: cell-based; conditions: T98G cells, inducer m-wnt3a, dash: not inhibited by more than 40% at 50 µmol/L
# Procedure: as §3
# Hedgehog = assay: Luciferase reporter assay, Hedgehog, T98G; assay type: cell-based; conditions: Homo sapiens; T98G cells; inducer PMA
# Procedure: as §3
# T1 sequence (P41145 whole entry): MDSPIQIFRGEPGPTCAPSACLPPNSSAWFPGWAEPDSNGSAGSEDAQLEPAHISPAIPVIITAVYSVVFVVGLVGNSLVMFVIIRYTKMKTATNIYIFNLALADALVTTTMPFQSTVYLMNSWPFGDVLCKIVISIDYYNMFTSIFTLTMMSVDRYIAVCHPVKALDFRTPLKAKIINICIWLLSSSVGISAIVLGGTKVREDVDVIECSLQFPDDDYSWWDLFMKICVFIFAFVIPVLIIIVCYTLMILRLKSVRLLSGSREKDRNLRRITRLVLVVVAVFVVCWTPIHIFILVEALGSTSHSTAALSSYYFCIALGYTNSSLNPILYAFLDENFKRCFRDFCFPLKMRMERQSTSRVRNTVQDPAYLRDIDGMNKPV
Compound,"Percent displacement, ĸ (κ opioid receptor)",Cytotoxicity (in words) [1],"Percent displacement, µ (μ opioid receptor; 10 μM, [3H]-DAMGO)","Ki (μ opioid receptor; NA = not active, read-out: μ Ki ± SEM)",IC50 at 48 h [2],IC50 at 48 h [3],IC50 at 48 h [4],IC50 at 48 h [5],IC50 (Stat3),IC50 (Smad2/3),IC50 (NF-κB),IC50 (E2F),IC50 (Myc),IC50 (ETS),IC50 (Notch),IC50 (Wnt; Homo sapiens),"IC50, Wnt (m-wnt3a) (Wnt)",IC50 (Hedgehog)
"C[C@H]1CC[C@H]2[C@H](C1)c1c(O)cc(/C=C/c3ccccc3O)cc1OC2(C)C [compound 3, machaeriol C]",6.4%,inactive,,,,,,,,,,,,,,,,
"C=C(C)[C@H]1CC[C@H](C)C[C@@H]1c1c(O)cc(/C=C/c2ccccc2O)cc1O [compound 6, machaeridiol B]",,,27.6%,4.73 ± 0.84 µM,37 µg/mL,37 µg/mL,47 µg/mL,32 to 38 µg/mL,1.4 µM,3 µM,4 µM,0.7 µM,2 µM,5.9 µM,4.6 µM,> 50 µM,inactive,5 µM
